Test results as given in ChEMBL document CHEMBL3763135, “Synthesis and evaluation of thiophene-based guanylhydrazones (iminoguanidines) efficient against panel of voriconazole-resistant fungal isolates” (Bioorg Med Chem, 2016).
Calls of active or inactive are those of the source.

How the values were obtained:
Candida albicans [1] = assay: Fungistatic activity against Candida albicans CA5 at sub-MIC measured after 12 hrs by time-kill dependence-based spectrophotometric analysis; assay type: functional, organism-based
Candida albicans [2] = assay: Induction of membrane damage in Candida albicans CA5 at MIC measured after 2 hrs by concavaline-FITC/PI/DAPI-staining based fluorescence microscopic analysis relative to DMSO control; assay type: functional
[3] = Induction of membrane damage in PC/PS liposome assessed as calcein release at MIC after 30 mins by fluorescence-based liposome leakage assay; assay type: functional
Danio rerio [4] = organism: Danio rerio; assay: Toxicity against zebrafish embryo assessed as effect on tail tip at 50 ug/ml measured at 96 hrs post fertilization by inverted microscopic analysis; assay type: organism-based; details: in vivo
Danio rerio [5] = organism: Danio rerio; assay: Toxicity against zebrafish embryo assessed as growth retardation at 50 ug/ml measured at 96 hrs post fertilization by inverted microscopic analysis; assay type: organism-based; details: in vivo
[6] = Hemolytic effect in sheep RBC assessed as release of hemoglobin at 10 ug/ml after 1 hr; assay type: ADME, cell-based, Ovis aries, Erythrocyte; details: sheep red blood cells, read-out: Activity
Danio rerio [7] = organism: Danio rerio; assay: Toxicity against zebrafish embryo assessed as effect on notochord at 50 ug/ml measured at 96 hrs post fertilization by inverted microscopic analysis; assay type: organism-based; details: in vivo
Danio rerio [8] = organism: Danio rerio; assay: Toxicity against zebrafish embryo assessed as effect on eyes at 50 ug/ml measured at 96 hrs post fertilization by inverted microscopic analysis; assay type: organism-based; details: in vivo
Danio rerio [9] = organism: Danio rerio; assay: Toxicity against zebrafish embryo assessed as effect on otoliths at 50 ug/ml measured at 96 hrs post fertilization by inverted microscopic analysis; assay type: organism-based; details: in vivo
Danio rerio [10] = assay: Toxicity against zebrafish embryo assessed as yolk edema at 50 ug/ml measured at 96 hrs post fertilization by inverted microscopic analysis; assay type: organism-based; details: in vivo
Danio rerio [11] = organism: Danio rerio; assay: Toxicity against zebrafish embryo assessed as effect on heart beat at 50 ug/ml measured at 96 hrs post fertilization by inverted microscopic analysis; assay type: organism-based; details: in vivo
Danio rerio [12] = organism: Danio rerio; assay: Toxicity against zebrafish embryo assessed as effect on blood circulation at 50 ug/ml measured at 96 hrs post fertilization by inverted microscopic analysis; assay type: organism-based; details: in vivo
Danio rerio [13] = organism: Danio rerio; assay: Toxicity against zebrafish embryo assessed as unhatched embryos at 50 ug/ml measured at 96 hrs post fertilization by inverted microscopic analysis; assay type: organism-based; details: in vivo
Danio rerio [14] = organism: Danio rerio; assay: Toxicity against zebrafish embryo assessed as head malformation at 50 ug/ml measured at 96 hrs post fertilization by inverted microscopic analysis; assay type: organism-based; details: in vivo
Danio rerio [15] = organism: Danio rerio; assay: Toxicity against zebrafish embryo assessed as skeletal deformities at 50 ug/ml measured at 96 hrs post fertilization by inverted microscopic analysis; assay type: organism-based; details: in vivo

Cl.Cl.N=C(N)N/N=C/c1ccc(-c2ccc(/C=N/NC(=N)N)s2)cc1
active: Activity (Candida albicans [1])
8%: Activity [3]
0%: Activity (Danio rerio [4]) | Activity (Danio rerio [5]) | Activity (Danio rerio [7]) | Activity (Danio rerio [8]) | Activity (Danio rerio [9]) | Activity (Danio rerio [10]) | Activity (Danio rerio [11]) | Activity (Danio rerio [12]) | Activity (Danio rerio [13]) | Activity (Danio rerio [14]) | Activity (Danio rerio [15])
20%: Activity (Candida albicans [2]) | hemolysis at 1 h, 10 ug/ml [6]
